Values after ≈ are worked out from the molar mass of the structure shown. Where a name gives a salt, the structure may show the parent alone. Read-outs that look alike come from different tables or passages of the source.
How the values were obtained:
S.pneumoniae SR16675 = assay: MIC by agar dilution method; assay type: cell-based
Method: (§1) The minimal inhibitory concentration (MIC) of compound (I) against various bacteria was determined by an agar dilution method. As reference compounds, used were cefozopran hydrochloride (CZOP) described in JP(A) Kokai H03-47189, cefoselis sulfate (CFSL) described in JP(A) Kokai H07-196665 and WO97/41128, compound A of which 3-side chain is a type of imidazo[4,5-c]pyridiniummethyl, and vancomycin. In the table, “Ex5-3”, for example, represents the end compound of the present invention obtained in Example 5-3, and the others are similarly expressed.

S.aureus SR3626 = assay: MIC by agar dilution method; assay type: cell-based
Method: as §1

S.mitis SR16376 = assay: MIC by agar dilution method; assay type: cell-based
Method: as §1

S.aureus SR14 = assay: MIC by agar dilution method; assay type: cell-based
Method: as §1

S.aureus SR3637 [1] = assay: MIC by agar dilution method; assay type: cell-based
Method: as §1

S.pneumoniae Type 1 = assay: MIC by agar dilution method; assay type: cell-based
Method: as §1

S.aureus SMITH = assay: MIC by agar dilution method; assay type: cell-based
Method: as §1

S.aureus SR3637 [2] = assay: ED50 mouse/S.aureus SR3637; assay type: in vivo; conditions: Staphylococcus aureus, read-out: ED50
E.cloacae SR4321 = assay: MIC by agar dilution method; assay type: cell-based; conditions: E.cloacae SR4321, G(−)
Method: as §1

P.vulgaris CN-329 = assay: MIC by agar dilution method; assay type: cell-based; conditions: P.vulgaris CN-329, G(−)
Method: as §1

E.coli SR5028 = assay: MIC by agar dilution method; assay type: cell-based; conditions: E.coli SR5028, G(−)
Method: as §1

P.aeruginosae SR5393 = assay: MIC by agar dilution method; assay type: cell-based; conditions: P.aeruginosae SR5393, G(−)
Method: as §1

E.cloacae ATCC 13047 = assay: MIC by agar dilution method; assay type: cell-based; conditions: E.cloacae ATCC 13047, G(−)
Method: as §1

E.faecalis SR1004 = assay: MIC by agar dilution method; assay type: cell-based; conditions: E.faecalis SR1004, G(+)
Method: as §1

E.coli NIH JC-2 = assay: MIC by agar dilution method; assay type: cell-based; conditions: E.coli NIH JC-2, G(−)
Method: as §1

S.marvescens ATCC 13880 = assay: MIC by agar dilution method; assay type: cell-based
Method: as §1

P.aeruginosa SR24 = assay: MIC by agar dilution method; assay type: cell-based; conditions: P.aeruginosa SR24, G(−)
Method: as §1

[3] = Streptococcus pneumoniae, S.pneumoniae SR16675, G(+), read-out: MIC
[4] = Enterobacter cloacae, read-out: MIC
[5] = Staphylococcus aureus, S.aureus SR3626 (MRSA), G(+), read-out: MIC
[6] = Proteus vulgaris, CN329, read-out: MIC
[7] = Streptococcus mitis, S.mitis SR16376, G(+), read-out: MIC
[8] = Escherichia coli, read-out: MIC
[9] = Staphylococcus aureus, S.aureus SR14, G(+), read-out: MIC
[10] = Enterobacter cloacae, ATCC13047, read-out: MIC
[11] = Staphylococcus aureus, S.aureus SR3637 (MRSA), G(+), read-out: MIC
[12] = Enterococcus faecalis, read-out: MIC
[13] = Escherichia coli, NIHJC2, read-out: MIC
[14] = Streptococcus pneumoniae, TYPE1, S.pneumoniae Type 1, G(+), read-out: MIC
[15] = Staphylococcus aureus, S.aureus SMITH, G(+), read-out: MIC
[16] = Pseudomonas aeruginosa, read-out: MIC

**Q.** With `CN[C@H](CC(C)C)C(=O)N[C@H]1C(=O)N[C@@H](CC(N)=O)C(=O)N[C@H]2C(=O)N[C@H]3C(=O)N[C@H](C(=O)N[C@H](C(=O)O)c4cc(O)cc(O)c4-c4cc3ccc4O)[C@H](O)c3ccc(c(Cl)c3)Oc3cc2cc(c3O[C@@H]2O[C@H](CO)[C@@H](O)[C@H](O)[C@H]2O[C@H]2C[C@](C)(N)[C@H](O)[C@H](C)O2)Oc2ccc(cc2Cl)[C@H]1O` [VCM, vancomycin, reference compound] as the compound, how does the MIC (S.pneumoniae SR16675; Streptococcus pneumoniae, SR16675) read?
**A.** 0.2 µg/mL (≈ 0.138 µM)

**Q.** And the MIC (S.aureus SR3626; Staphylococcus aureus, MRSA)?
**A.** 3.13 µg/mL (≈ 2.16 µM)

**Q.** What about the MIC (S.mitis SR16376; Streptococcus mitis, SR16376) of the same compound?
**A.** 0.39 µg/mL (≈ 0.269 µM)

**Q.** And the MIC (S.aureus SR14; Staphylococcus aureus, SR14)?
**A.** 0.78 µg/mL (≈ 0.538 µM)

**Q.** What about the MIC (S.aureus SR3637 [1]; Staphylococcus aureus, MRSA) of the same compound?
**A.** 3.13 µg/mL (≈ 2.16 µM)

**Q.** And the MIC (S.pneumoniae Type 1; Streptococcus pneumoniae, TYPE1)?
**A.** 0.39 µg/mL (≈ 0.269 µM)

**Q.** And the MIC (S.aureus SMITH; Staphylococcus aureus)?
**A.** 0.78 µg/mL (≈ 0.538 µM)

**Q.** And the ED50 (S.aureus SR3637 [2])?
**A.** 5.66 mg/kg

**Q.** How did the MIC (S.pneumoniae SR16675; [3]) turn out when `CCO/N=C(\C(=O)NC1C(=O)N2C(C(=O)[O-])=C(C[n+]3ccc4c(c3)ncn4CCCN)CSC12)c1nsc(N)n1` (centres unmarked) [A, reference compound] was run?
**A.** 0.39 µg/mL (≈ 0.665 µM)

**Q.** And the MIC (E.cloacae SR4321; [4])?
**A.** 12.5 µg/mL (≈ 21.3 µM)

**Q.** And the MIC (S.aureus SR3626; [5])?
**A.** 25 µg/mL (≈ 42.6 µM)

**Q.** And the MIC (P.vulgaris CN-329; [6])?
**A.** 0.1 µg/mL (≈ 0.17 µM)

**Q.** And the MIC (S.mitis SR16376; [7])?
**A.** 0.1 µg/mL (≈ 0.17 µM)

**Q.** What about the MIC (E.coli SR5028; [8]) of the same compound?
**A.** 1.56 µg/mL (≈ 2.66 µM)

**Q.** What about the MIC (S.aureus SR14; [9]) of the same compound?
**A.** 3.13 µg/mL (≈ 5.34 µM)

**Q.** And the MIC (P.aeruginosae SR5393; read-out: MIC)?
**A.** 3.13 µg/mL (≈ 5.34 µM)

**Q.** And the MIC (E.cloacae ATCC 13047; [10])?
**A.** 0.48 µg/mL (≈ 0.818 µM)

**Q.** What about the MIC (S.aureus SR3637 [1]; [11]) of the same compound?
**A.** 25 µg/mL (≈ 42.6 µM)

**Q.** And the MIC (E.faecalis SR1004; [12])?
**A.** 50 µg/mL (≈ 85.2 µM)

**Q.** What about the MIC (E.coli NIH JC-2; [13]) of the same compound?
**A.** 0.05 µg/mL (≈ 0.0852 µM)

**Q.** And the MIC (S.pneumoniae Type 1; [14])?
**A.** 0.0125 µg/mL (≈ 0.0213 µM)

**Q.** And the MIC (S.marvescens ATCC 13880)?
**A.** 0.1 µg/mL (≈ 0.17 µM)

**Q.** What about the MIC (S.aureus SMITH; [15]) of the same compound?
**A.** 0.78 µg/mL (≈ 1.33 µM)

**Q.** And the MIC (P.aeruginosa SR24; [16])?
**A.** 0.78 µg/mL (≈ 1.33 µM)

**Q.** Which results are given for `CO/N=C(\C(=O)N[C@@H]1C(=O)N2C(C(=O)[O-])=C(Cn3cc[n+]4ncccc34)CS[C@H]12)c1nsc(N)n1` [CZOP, cefozopran hydrochloride, reference compound]?
**A.** MIC (S.pneumoniae SR16675; [3]): 0.78 µg/mL; MIC (E.cloacae SR4321; [4]): 6.25 µg/mL; MIC (S.aureus SR3626; [5]): 50 µg/mL; MIC (P.vulgaris CN-329; [6]): 0.2 µg/mL; MIC (S.mitis SR16376; [7]): 0.2 µg/mL; MIC (E.coli SR5028; [8]): 0.78 µg/mL; MIC (S.aureus SR14; [9]): 0.78 µg/mL; MIC (P.aeruginosae SR5393; read-out: MIC): 1.56 µg/mL; MIC (E.cloacae ATCC 13047; [10]): 0.2 µg/mL; MIC (S.aureus SR3637 [1]; [11]): 50 µg/mL; MIC (E.faecalis SR1004; [12]): 25 µg/mL; MIC (E.coli NIH JC-2; [13]): 0.05 µg/mL; MIC (S.pneumoniae Type 1; [14]): 0.05 µg/mL; MIC (S.marvescens ATCC 13880; S.marvescens ATCC 13880, G(−), read-out: MIC): 0.1 µg/mL; MIC (S.aureus SMITH; [15]): 0.78 µg/mL; MIC (P.aeruginosa SR24; [16]): 0.78 µg/mL

**Q.** What does the source list for `CCON=C(C(=O)NC1C(=O)N2C(C(=O)[O-])=C(C[n+]3cccc4c3ncn4CCCN)CSC12)c1nsc(N)n1.Cl` (centres unmarked) [Ex5-2]?
**A.** MIC (S.pneumoniae SR16675; S.pneumoniae SR16675, G(+)): 0.78 µg/mL; MIC (E.cloacae SR4321): 25 µg/mL; MIC (S.aureus SR3626; S.aureus SR3626 (MRSA), G(+)): 3.13 µg/mL; MIC (P.vulgaris CN-329): 0.78 µg/mL; MIC (S.mitis SR16376; S.mitis SR16376, G(+)): 0.2 µg/mL; MIC (E.coli SR5028): 3.13 µg/mL; MIC (S.aureus SR14; S.aureus SR14, G(+)): 0.78 µg/mL; MIC (P.aeruginosae SR5393): 3.13 µg/mL; MIC (E.cloacae ATCC 13047): 0.78 µg/mL; MIC (S.aureus SR3637 [1]; S.aureus SR3637 (MRSA), G(+)): 3.13 µg/mL; MIC (E.faecalis SR1004): 50 µg/mL; MIC (E.coli NIH JC-2): 0.39 µg/mL; MIC (S.pneumoniae Type 1; S.pneumoniae Type 1, G(+)): 0.025 µg/mL; MIC (S.marvescens ATCC 13880; S.marvescens ATCC 13880, G(−)): 0.39 µg/mL; MIC (S.aureus SMITH; S.aureus SMITH, G(+)): 0.78 µg/mL; MIC (P.aeruginosa SR24): 0.78 µg/mL

Reference: patent US6800621B2, “Imidazo[4,5-b]-pyridiniummethyl-containing cephem compounds having broad antibacterial spectrum activity” (Shionogi & Co., Ltd., priority 1998, dated 2004)
